Assay results as given in PubChem BioAssay AID2060328 (Molecular Pharmacology Branch, DTP, NCI, 2025).

Tested on: MDA-MB-231 multicell spheroids, viability (%T/C)
Assay: Anticancer human tumor MDA-MB-231 cell line growth inhibition [IpAb];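 further: viability read after seven days of drug exposure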;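 on viability, T/C: 100% = DMSO vehicle control viability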
Conditions: for IC50: curve of first compound; for viability, T/C: stronger effect = lower value
Procedure, shortened: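 Combinations with ipatasertib or abemaciclib were tested on tumour spheroids holding HUVEC (25%) and MSC (15%) alongside 60% malignant cells. Top concentration was at or near clinical Cmax (10 microM if undefined), descending in half-log steps.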

[1] = second compound 0.01 µM, first compound 0.0316 µM
[2] = second compound 0.01 µM, first compound 0.1 µM
[3] = second compound 0.0316 µM, first compound 0.0316 µM
[4] = second compound 0.0316 µM, first compound 0.1 µM
[5] = second compound 0.1 µM, first compound 0.0316 µM
[6] = second compound 0.1 µM, first compound 0.1 µM
[7] = second compound 0.316 µM, first compound 0.0316 µM
[8] = second compound 0.316 µM, first compound 0.1 µM
[9] = second compound 1 µM, first compound 0.0316 µM
[10] = second compound 1 µM, first compound 0.1 µM

**Q.** With C=CCn1c(=O)c2cnc(Nc3ccc(N4CCN(C)CC4)cc3)nc2n1-c1cccc(C(C)(C)O)n1 + CCN1CCN(Cc2ccc(Nc3ncc(F)c(-c4cc(F)c5nc(C)n(C(C)C)c5c4)n3)nc2)CC1 as the molecule, how does the IC50 (second compound 0.01 µM) read?
**A.** 239 nM

**Q.** What about the IC50 (second compound 0.0316 µM) of the same molecule?
**A.** 208 nM

**Q.** And the IC50 (second compound 0.1 µM)?
**A.** 177 nM

**Q.** And the IC50 (second compound 0.316 µM)?
**A.** 33.4 nM

**Q.** What about the IC50 (second compound 1 µM) of the same molecule?
**A.** 325 nM

**Q.** What about the viability, T/C [1] of the same molecule?
**A.** 88.8%

**Q.** And the viability, T/C [2]?
**A.** 85%

**Q.** And the viability, T/C (second compound 0.01 µM, first compound 0.316 µM)?
**A.** 38.6%

**Q.** And the viability, T/C (second compound 0.01 µM, first compound 1 µM)?
**A.** 20.3%

**Q.** What about the viability, T/C (second compound 0.01 µM, first compound 3.16 µM) of the same molecule?
**A.** 15.4%

**Q.** And the viability, T/C (second compound 0.01 µM, first compound 10 µM)?
**A.** 20%

**Q.** And the viability, T/C [3]?
**A.** 80.1%

**Q.** What about the viability, T/C [4] of the same molecule?
**A.** 69.3%

**Q.** What about the viability, T/C (second compound 0.0316 µM, first compound 0.316 µM) of the same molecule?
**A.** 38.9%

**Q.** What about the viability, T/C (second compound 0.0316 µM, first compound 1 µM) of the same molecule?
**A.** 23%

**Q.** And the viability, T/C (second compound 0.0316 µM, first compound 3.16 µM)?
**A.** 17.9%

**Q.** What about the viability, T/C (second compound 0.0316 µM, first compound 10 µM) of the same molecule?
**A.** 20%

**Q.** And the viability, T/C [5]?
**A.** 59.8%

**Q.** And the viability, T/C [6]?
**A.** 56.8%

**Q.** What about the viability, T/C (second compound 0.1 µM, first compound 0.316 µM) of the same molecule?
**A.** 43.1%

**Q.** And the viability, T/C (second compound 0.1 µM, first compound 1 µM)?
**A.** 26.1%

**Q.** What about the viability, T/C (second compound 0.1 µM, first compound 3.16 µM) of the same molecule?
**A.** 19.9%

**Q.** And the viability, T/C (second compound 0.1 µM, first compound 10 µM)?
**A.** 21.2%

**Q.** What about the viability, T/C [7] of the same molecule?
**A.** 47.4%

**Q.** And the viability, T/C [8]?
**A.** 48.7%

**Q.** What about the viability, T/C (second compound 0.316 µM, first compound 0.316 µM) of the same molecule?
**A.** 42.5%

**Q.** And the viability, T/C (second compound 0.316 µM, first compound 1 µM)?
**A.** 32.9%

**Q.** What about the viability, T/C (second compound 0.316 µM, first compound 3.16 µM) of the same molecule?
**A.** 24.8%

**Q.** What about the viability, T/C (second compound 0.316 µM, first compound 10 µM) of the same molecule?
**A.** 26.4%

**Q.** What about the viability, T/C [9] of the same molecule?
**A.** 51.8%

**Q.** What about the viability, T/C [10] of the same molecule?
**A.** 51.7%

**Q.** And the viability, T/C (second compound 1 µM, first compound 0.316 µM)?
**A.** 50.5%

**Q.** And the viability, T/C (second compound 1 µM, first compound 1 µM)?
**A.** 48.5%

**Q.** What about the viability, T/C (second compound 1 µM, first compound 3.16 µM) of the same molecule?
**A.** 41%

**Q.** And the viability, T/C (second compound 1 µM, first compound 10 µM)?
**A.** 36.5%

**Q.** What does the source list for CC(C)n1nc(-c2ccc3oc(N)nc3c2)c2c(N)ncnc21 + CCN1CCN(Cc2ccc(Nc3ncc(F)c(-c4cc(F)c5nc(C)n(C(C)C)c5c4)n3)nc2)CC1?
**A.** IC50 (second compound 0.01 µM): 7.66 nM; IC50 (second compound 0.0316 µM): 2.71 nM; IC50 (second compound 0.1 µM): 0.66 nM; IC50 (second compound 0.316 µM): < 0.316 nM; IC50 (second compound 1 µM): < 0.316 nM; viability, T/C (second compound 0.01 µM, first compound 0.000316 µM): 90.3%; viability, T/C (second compound 0.01 µM, first compound 0.001 µM): 85.6%; viability, T/C (second compound 0.01 µM, first compound 0.00316 µM): 65.5%; viability, T/C (second compound 0.01 µM, first compound 0.01 µM): 45.9%; viability, T/C [1]: 34.6%; viability, T/C [2]: 32.3%; viability, T/C (second compound 0.0316 µM, first compound 0.000316 µM): 73.7%; viability, T/C (second compound 0.0316 µM, first compound 0.001 µM): 64.5%; viability, T/C (second compound 0.0316 µM, first compound 0.00316 µM): 48.2%; viability, T/C (second compound 0.0316 µM, first compound 0.01 µM): 33.1%; viability, T/C [3]: 28.8%; viability, T/C [4]: 26.8%; viability, T/C (second compound 0.1 µM, first compound 0.000316 µM): 55.1%; viability, T/C (second compound 0.1 µM, first compound 0.001 µM): 47%; viability, T/C (second compound 0.1 µM, first compound 0.00316 µM): 37.4%; viability, T/C (second compound 0.1 µM, first compound 0.01 µM): 30.2%; viability, T/C [5]: 27.6%; viability, T/C [6]: 27.6%; viability, T/C (second compound 0.316 µM, first compound 0.000316 µM): 41.7%; viability, T/C (second compound 0.316 µM, first compound 0.001 µM): 38%; viability, T/C (second compound 0.316 µM, first compound 0.00316 µM): 31.4%; viability, T/C (second compound 0.316 µM, first compound 0.01 µM): 30.1%; viability, T/C [7]: 29.6%; viability, T/C [8]: 29.3%; viability, T/C (second compound 1 µM, first compound 0.000316 µM): 47.1%; viability, T/C (second compound 1 µM, first compound 0.001 µM): 45%; viability, T/C (second compound 1 µM, first compound 0.00316 µM): 39.8%; viability, T/C (second compound 1 µM, first compound 0.01 µM): 45.4%; viability, T/C [9]: 47.4%; viability, T/C [10]: 49.8%
